Assay results as given in US20100092402A1, “TREATMENT OF RESPIRATORY DISEASE” (Mucokinetica Ltd., priority 2007, published 2010).
Where two headings read alike, the source gives them in different places.

Target: T1, epithelial amiloride-sensitive sodium channel (ENaC) (Homo sapiens, UniProt P37088+P51168+P51170)
T1 sequence (P37088 1-669): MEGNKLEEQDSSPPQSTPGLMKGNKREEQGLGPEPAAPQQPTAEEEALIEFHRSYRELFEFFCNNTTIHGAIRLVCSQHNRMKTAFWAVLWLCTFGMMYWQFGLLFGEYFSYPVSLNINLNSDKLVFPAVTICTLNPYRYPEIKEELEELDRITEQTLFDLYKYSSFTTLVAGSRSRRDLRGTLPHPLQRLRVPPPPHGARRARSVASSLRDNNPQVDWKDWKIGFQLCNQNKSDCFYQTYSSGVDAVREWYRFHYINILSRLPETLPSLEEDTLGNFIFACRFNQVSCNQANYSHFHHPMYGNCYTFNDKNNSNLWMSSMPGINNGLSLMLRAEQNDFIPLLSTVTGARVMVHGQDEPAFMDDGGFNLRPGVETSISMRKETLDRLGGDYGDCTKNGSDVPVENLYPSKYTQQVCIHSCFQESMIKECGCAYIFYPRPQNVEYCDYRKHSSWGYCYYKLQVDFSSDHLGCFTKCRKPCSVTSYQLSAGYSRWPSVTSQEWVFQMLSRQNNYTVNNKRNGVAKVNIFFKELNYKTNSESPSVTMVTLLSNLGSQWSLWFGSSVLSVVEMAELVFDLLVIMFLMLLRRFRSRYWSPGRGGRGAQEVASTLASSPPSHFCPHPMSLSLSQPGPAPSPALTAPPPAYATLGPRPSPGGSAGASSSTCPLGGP
T1 sequence (P51168 1-640): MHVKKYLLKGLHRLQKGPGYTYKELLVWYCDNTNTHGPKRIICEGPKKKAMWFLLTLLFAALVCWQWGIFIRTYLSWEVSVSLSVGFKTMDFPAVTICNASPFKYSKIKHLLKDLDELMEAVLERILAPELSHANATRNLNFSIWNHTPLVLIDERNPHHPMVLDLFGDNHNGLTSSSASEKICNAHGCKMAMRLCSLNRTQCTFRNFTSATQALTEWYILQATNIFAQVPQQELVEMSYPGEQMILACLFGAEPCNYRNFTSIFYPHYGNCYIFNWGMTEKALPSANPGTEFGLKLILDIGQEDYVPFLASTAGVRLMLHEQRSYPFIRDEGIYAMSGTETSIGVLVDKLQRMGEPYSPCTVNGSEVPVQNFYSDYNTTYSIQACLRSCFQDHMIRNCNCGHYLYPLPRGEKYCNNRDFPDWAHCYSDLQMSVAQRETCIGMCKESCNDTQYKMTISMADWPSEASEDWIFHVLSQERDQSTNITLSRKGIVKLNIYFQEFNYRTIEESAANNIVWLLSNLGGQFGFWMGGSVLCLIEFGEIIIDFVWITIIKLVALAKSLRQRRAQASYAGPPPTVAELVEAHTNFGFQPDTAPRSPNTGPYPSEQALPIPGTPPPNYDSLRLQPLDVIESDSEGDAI
T1 sequence (P51170 1-649): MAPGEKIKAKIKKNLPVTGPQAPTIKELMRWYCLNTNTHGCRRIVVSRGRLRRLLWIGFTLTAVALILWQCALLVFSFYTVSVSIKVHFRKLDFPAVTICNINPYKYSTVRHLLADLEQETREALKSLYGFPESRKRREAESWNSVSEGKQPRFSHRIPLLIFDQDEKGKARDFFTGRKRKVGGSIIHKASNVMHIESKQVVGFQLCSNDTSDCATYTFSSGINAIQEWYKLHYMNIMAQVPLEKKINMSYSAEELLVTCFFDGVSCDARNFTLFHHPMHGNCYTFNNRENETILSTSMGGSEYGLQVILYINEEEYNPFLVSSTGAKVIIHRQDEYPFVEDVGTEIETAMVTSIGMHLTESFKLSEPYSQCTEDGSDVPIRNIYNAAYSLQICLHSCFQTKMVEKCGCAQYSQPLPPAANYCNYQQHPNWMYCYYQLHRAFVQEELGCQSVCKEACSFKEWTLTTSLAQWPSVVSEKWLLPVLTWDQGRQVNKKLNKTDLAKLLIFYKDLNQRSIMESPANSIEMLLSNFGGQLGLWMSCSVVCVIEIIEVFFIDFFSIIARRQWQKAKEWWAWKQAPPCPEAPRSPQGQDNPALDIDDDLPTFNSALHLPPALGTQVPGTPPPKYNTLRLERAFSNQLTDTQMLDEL
Format: cell-based
Conditions: for average baseline Isc slope in initial recording period: control slope +0.04
Experimental: Human bronchial epithelial (HBE) cells were purchased from Cambrex Bioscience Ltd, UK., and were stored frozen in liquid nitrogen until required for use.
HBE cells were amplified by growing in secondary culture according to the suppliers' instructions. Cells were seeded at densities of between 3,000 to 4,000/cm^2 in plastic T-25 culture flasks in bronchial epithelial cell growth medium (BEGM) prepared from bronchial epithelial basal medium (BEBM, Cambrex, UK) supplemented with bovine pituitary extract, hydrocortisone, human epidermal growth factor, epinephrine, transferrin, insulin, retinoic acid, triiodothyronine, gentamicin, and amphotericin B. Cultures were maintained at 37° C. in 5% CO2 in a humidified incubator. Medium was changed every 1 to 3 days until cells were approximately 90% confluent. Cells were then passaged with trypsin EDTA according to the suppliers' instructions, and either used for further cell cultures, or cryopreserved in liquid nitrogen in BEGM containing 10% foetal bovine serum and 10% DMSO.
HBE cells were prepared for electrophysiology studies by growing as tertiary cultures on Snapwell (Corning) 0.4μ clear polyester membrane inserts 1.2 cm^2 coated with collagen IV (Sigma). Cells were seeded at approximately 10^5/cm^2 in 0.5 ml 1:1 DMEM (Cambrex, UK) BEGM containing bovine pituitary extract (50 μg/ml), hydrocortisone (0.5 μg/ml), human epidermal growth factor (0.5 ng/ml), epinephrine (0.5 μg/ml), transferrin (10 μg/ml), insulin (5 μg/ml), retinoic acid (50 nM), and gentamicin (50 μg/ml) (Danahay medium; Danahay et al. 2002). Snapwell inserts were mounted in 6-well plates with 3 ml Danahay medium in the wells, and grown at 37° C. in 5% CO2 in a humidified incubator. Medium was changed every 1 to 3 days. An apical air-liquid interface (ALI) was established as the cells achieved confluence (3 to 6 days) by removal of medium from the centre of the insert. Confluent differentiated bronchial epithelial cells were used for electrophysiology studies at between 15 and 29 days after establishing ALI.
Differentiated HBE cells grown to confluence at an air-liquid interface for 15 to 29 days were used to study substances for ability to achieve long duration down regulation of the epithelial amiloride-sensitive sodium channel (ENaC).
Step 1: Treatment with substance. For each group of cells treated with a substance, 30 μl of 100 times final concentration of substance was added to the 3 ml basolateral culture medium, mixed and 150 μl of the resultant basolateral fluid was transferred to the apical surface for 5 min. For non-treatment control groups of basolateral fluid with no added substance was transferred to the apical surface. After 5 min. equilibration the excess apical fluid was then transferred back to the basolateral side of the culture well.
Step 2: Variable period of incubation with the substance. Dependent on the individual experiment the cells were returned to the 37° C. incubator for periods of 0 min. to 120 min.
Step 3: Period of substance washout with fresh culture medium. For experiments to study the duration of a substance response the HBE cells on Snapwell inserts were washed with fresh culture medium (no added substance) at 37° C. and placed in fresh 6-well plates containing 3 ml fresh culture medium (no added substance) on the basolateral side. […] Step 3 was omitted in studies where the duration of the substance response was not investigated.
Step 4: Wash with Krebs-Ringer buffer and assembly in Ussing chambers. The Snapwell insert cultures of HBE cells were removed from the 6-well plates and washed with excess Krebs-Ringer buffer (120 mM-NaCl, 25 mM-NaHCO3, 3.3 mM-KH2PO4, 0.8 mM-K2HPO4, 1.2 mM-CaCl2, 1.2 mM-MgCl2, 10 mM-glucose) pH7.4 at 37° C. The inserts were then mounted in Ussing chambers (Snapwell diffusion chambers, Costar UK Ltd.). Each side of the chamber was filled with 5 ml Krebs-Ringer buffer and gassed continuously with 95% O2/5% CO2 at 37° C. […]

[1] = down regulation of ENaC activity

## N=C(N)c1ccc2cc(OC(=O)c3ccc(N=C(N)N)cc3)ccc2c1 [6-amidino-2-napthyl 4-guanidinobenzoate]
1 μM 60 min, 3 h 00 min washout, FIG. 7D
  average baseline Isc slope in initial recording period: +0.93 μAmp/min
1 μM 60 min, 4 h 30 min washout, FIG. 7E
  average baseline Isc slope in initial recording period: +0.60 μAmp/min
1 μM 60 min, then 4 h 30 min culture medium washout
  amiloride ΔIsc compared to control: not significantly different
3 h 00 min in fresh culture, first 15 minutes of recording, FIGS. 7D and 7A
  slope of rising baseline short circuit current relative to untreated controls: over 20 times
[1]
  time to half maximal inhibition (onset): ≤ 5 min
  time to maximum down regulation (onset): ≤ 30 min
